Laboratory results from patent publication US9708314B2, “Heterocyclic amide compound” (NISSAN CHEMICAL INDUSTRIES, LTD., priority 2013, dated 2017).

Assays:
Format in all cases: in vivo
[1] = system: Beta vulgaris ssp. vulgaris; test: Test Example 4: effect on crop by application to foliage (diluvial soil, plastic box); conditions: for f (Beta vulgaris ssp. vulgaris) effect on crop grade: Application herbicide amount 320 g/ha, foliage application; for f: effect on crop, Beta vulgaris ssp. vulgaris: application to foliage, application herbicide amount 320 g/ha
Procedure, shortened: (§1)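 Scores run from 0 (herbicidal ratio ≤5%) to 5 (≥90%, almost fully withered) and were assessed three weeks after foliar spraying. Seedlings had been raised for 14 days at 25-30° C in sterilized diluvial soil before treatment, with the emulsion diluted in water to the stated g/ha dose.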

Brassica campestris L. = test: as above; conditions: for g (Brassica campestris L.) effect on crop grade: Application herbicide amount 320 g/ha, foliage application; for g: effect on crop, Brassica campestris L.: application to foliage, application herbicide amount 320 g/ha
Procedure, shortened: as §1

Glycine max = test: as above; conditions: for d (Glycine max) effect on crop grade: Application herbicide amount 320 g/ha, foliage application; for d: effect on crop, Glycine max: application to foliage, application herbicide amount 320 g/ha
Procedure, shortened: as §1

[2] = system: directly sowed Oryza sativa; test: as above; conditions: for b (directly sowed Oryza sativa) effect on crop grade: Application herbicide amount 320 g/ha, foliage application; for b: effect on crop, directly sowed Oryza sativa: application to foliage, application herbicide amount 320 g/ha
Procedure, shortened: as §1

Triticum aestivum = test: as above; conditions: for e (Triticum aestivum) effect on crop grade: Application herbicide amount 320 g/ha, foliage application; for e: effect on crop, Triticum aestivum: application to foliage, application herbicide amount 320 g/ha
Procedure, shortened: as §1

Zea mays = test: as above; conditions: for c (Zea mays) effect on crop grade: Application herbicide amount 320 g/ha, foliage application; for c: effect on crop, Zea mays: application to foliage, application herbicide amount 320 g/ha
Procedure, shortened: as §1

Monochoria vaginalis = test: Test Example 2: herbicidal activity, application during weed generation in submerged conditions; conditions: Eighteenth Table; application herbicide amount 320 g/ha
Procedure, shortened: (§2)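 Alluvial soil in Wagner pots flooded to 4 cm water depth; seeds sown mixed, grown in greenhouse at 25–30 °C. At one- to two-leaf stage, emulsion diluted with water to the set rate (g/ha) was applied to the water surface. Effect scored 0–5 by herbicidal ratio three weeks later.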

Scirpus juncoides = test: as above; conditions: Eighteenth Table; application herbicide amount 320 g/ha
Procedure, shortened: as §2

[3] = system: directly sowed Oryza sativa; test: Test Example 3: effect on crop by application to foliage (Wagner pot, water depth 0.1-0.5 cm); conditions: Nineteenth Table; application to foliage; application herbicide amount 320 g/ha
Procedure, shortened: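 A small sprayer delivered the diluted emulsion uniformly to foliage at the chosen rate in g/ha, 14 days after sowing in Wagner pots held at 25–30 °C. Outcome: 0–5 herbicidal-ratio score read three weeks post-treatment.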

SMILES | f (Beta vulgaris ssp. vulgaris) effect on crop grade [1] | g (Brassica campestris L.) effect on crop grade (Brassica campestris L.) | d (Glycine max) effect on crop grade (Glycine max) | b (directly sowed Oryza sativa) effect on crop grade [2] | e (Triticum aestivum) effect on crop grade (Triticum aestivum) | c (Zea mays) effect on crop grade (Zea mays) | C (Monochoria vaginalis) herbicidal ratio grade (Monochoria vaginalis) | B (Scirpus juncoides) herbicidal ratio grade (Scirpus juncoides) | b (effect on crop grade) [3] | f: effect on crop, Beta vulgaris ssp. vulgaris [1] | g: effect on crop, Brassica campestris L. (Brassica campestris L.) | d: effect on crop, Glycine max (Glycine max) | b: effect on crop, directly sowed Oryza sativa [2] | e: effect on crop, Triticum aestivum (Triticum aestivum) | c: effect on crop, Zea mays (Zea mays)
COc1ccc(-c2nnc3c(C(=O)Nc4nnco4)ccc(C(F)(F)F)n23)cc1 [1-149] | 5 (Herbicidal ratio of 90% or more (almost completely withered)) | 5 (Herbicidal ratio of 90% or more (almost completely withered)) | 3 (Herbicidal ratio of 40% or more and less than 70%) | 1 (Herbicidal ratio of 5% or more and less than 20%) | 0 (Herbicidal ratio of 5% or less (almost no effect)) | 0 (Herbicidal ratio of 5% or less (almost no effect)) | 2 (Herbicidal ratio of 20% or more and less than 40%) | 3 (Herbicidal ratio of 40% or more and less than 70%) | – | – | – | – | – | – | –
CCC(CC)c1nnc2c(C(=O)Nc3nnco3)ccc(C(F)(F)F)n12 [1-145] | 5 (Herbicidal ratio of 90% or more (almost completely withered)) | 3 (Herbicidal ratio of 40% or more and less than 70%) | 3 (Herbicidal ratio of 40% or more and less than 70%) | 3 (Herbicidal ratio of 40% or more and less than 70%) | 2 (Herbicidal ratio of 20% or more and less than 40%) | 0 (Herbicidal ratio of 5% or less (almost no effect)) | 4 (Herbicidal ratio of 70% or more and less than 90%) | 4 (Herbicidal ratio of 70% or more and less than 90%) | – | – | – | – | – | – | –
O=C(Nc1nnco1)c1ccc(C(F)(F)F)n2c(C3CC3)nnc12 [1-144] | 5 (Herbicidal ratio of 90% or more (almost completely withered)) | 4 (Herbicidal ratio of 70% or more and less than 90%) | 4 (Herbicidal ratio of 70% or more and less than 90%) | 0 (Herbicidal ratio of 5% or less (almost no effect)) | 1 (Herbicidal ratio of 5% or more and less than 20%) | 0 (Herbicidal ratio of 5% or less (almost no effect)) | 3 (Herbicidal ratio of 40% or more and less than 70%) | 4 (Herbicidal ratio of 70% or more and less than 90%) | – | – | – | – | – | – | –
Cc1nnc(NC(=O)c2ccc(C(F)(F)F)n3c(N(C)CCC#N)nnc23)o1 [1-153] | 5 (Herbicidal ratio of 90% or more (almost completely withered)) | 3 (Herbicidal ratio of 40% or more and less than 70%) | 5 (Herbicidal ratio of 90% or more (almost completely withered)) | 3 (Herbicidal ratio of 40% or more and less than 70%) | 2 (Herbicidal ratio of 20% or more and less than 40%) | 0 (Herbicidal ratio of 5% or less (almost no effect)) | 3 (Herbicidal ratio of 40% or more and less than 70%) | 3 (Herbicidal ratio of 40% or more and less than 70%) | – | – | – | – | – | – | –
Cc1nnc(NC(=O)c2ccc(C(F)(F)F)n3c(SCC4CC4)nnc23)o1 [1-115] | 5 (Herbicidal ratio of 90% or more (almost completely withered)) | 1 (Herbicidal ratio of 5% or more and less than 20%) | 2 (Herbicidal ratio of 20% or more and less than 40%) | 0 (Herbicidal ratio of 5% or less (almost no effect)) | 2 (Herbicidal ratio of 20% or more and less than 40%) | 0 (Herbicidal ratio of 5% or less (almost no effect)) | – | 3 (Herbicidal ratio of 40% or more and less than 70%) | 0 (Herbicidal ratio of 5% or less (almost no effect)) | – | – | – | – | – | –
COc1ccc(N(C)c2nnc3c(C(=O)Nc4nnc(C)o4)ccc(C(F)(F)F)n23)cc1 [1-165] | – | – | – | – | – | – | – | 2 (Herbicidal ratio of 20% or more and less than 40%) | 0 (Herbicidal ratio of 5% or less (almost no effect)) | 5 (Herbicidal ratio of 90% or more (almost completely withered)) | 4 (Herbicidal ratio of 70% or more and less than 90%) | 1 (Herbicidal ratio of 5% or more and less than 20%) | 0 (Herbicidal ratio of 5% or less (almost no effect)) | 0 (Herbicidal ratio of 5% or less (almost no effect)) | 0 (Herbicidal ratio of 5% or less (almost no effect))
CC(C)c1nnc2c(C(=O)Nc3nnc(C[S+](C)[O-])o3)ccc(C(F)(F)F)n12 (stereo not shown) [1-143] | 2 (Herbicidal ratio of 20% or more and less than 40%) | 3 (Herbicidal ratio of 40% or more and less than 70%) | 1 (Herbicidal ratio of 5% or more and less than 20%) | – | 0 (Herbicidal ratio of 5% or less (almost no effect)) | 0 (Herbicidal ratio of 5% or less (almost no effect)) | – | – | 0 (Herbicidal ratio of 5% or less (almost no effect)) | – | – | – | – | – | –
O=C(Nc1nnco1)c1ccc(C(F)(F)F)n2c(-c3ccc(F)cc3)nnc12 [1-147] | 5 (Herbicidal ratio of 90% or more (almost completely withered)) | 5 (Herbicidal ratio of 90% or more (almost completely withered)) | 3 (Herbicidal ratio of 40% or more and less than 70%) | 0 (Herbicidal ratio of 5% or less (almost no effect)) | 3 (Herbicidal ratio of 40% or more and less than 70%) | 0 (Herbicidal ratio of 5% or less (almost no effect)) | 3 (Herbicidal ratio of 40% or more and less than 70%) | 2 (Herbicidal ratio of 20% or more and less than 40%) | – | – | – | – | – | – | –
COc1ccc(CN(C)c2nnc3c(C(=O)Nc4nnc(C)o4)ccc(C(F)(F)F)n23)cc1 [1-167] | – | – | – | – | – | – | – | – | – | 5 (Herbicidal ratio of 90% or more (almost completely withered)) | 0 (Herbicidal ratio of 5% or less (almost no effect)) | 1 (Herbicidal ratio of 5% or more and less than 20%) | 0 (Herbicidal ratio of 5% or less (almost no effect)) | 0 (Herbicidal ratio of 5% or less (almost no effect)) | 0 (Herbicidal ratio of 5% or less (almost no effect))
COc1cc(OC)cc(-c2nnc3c(C(=O)Nc4nnco4)ccc(C(F)(F)F)n23)c1 [1-148] | 5 (Herbicidal ratio of 90% or more (almost completely withered)) | 4 (Herbicidal ratio of 70% or more and less than 90%) | 3 (Herbicidal ratio of 40% or more and less than 70%) | 3 (Herbicidal ratio of 40% or more and less than 70%) | 0 (Herbicidal ratio of 5% or less (almost no effect)) | 0 (Herbicidal ratio of 5% or less (almost no effect)) | 4 (Herbicidal ratio of 70% or more and less than 90%) | 5 (Herbicidal ratio of 90% or more (almost completely withered)) | – | – | – | – | – | – | –
CSCCNc1nnc2c(C(=O)Nc3nnc(C)o3)ccc(C(F)(F)F)n12 [1-130] | 5 (Herbicidal ratio of 90% or more (almost completely withered)) | 4 (Herbicidal ratio of 70% or more and less than 90%) | 3 (Herbicidal ratio of 40% or more and less than 70%) | – | 0 (Herbicidal ratio of 5% or less (almost no effect)) | 0 (Herbicidal ratio of 5% or less (almost no effect)) | – | – | 2 (Herbicidal ratio of 20% or more and less than 40%) | – | – | – | – | – | –
